Reference: PubChem BioAssay AID1963444 (Molecular Pharmacology Branch, DTP, NCI, 2024)
pIC50: −log10 of the molar value.

System: HSSY-II complex spheroid growth, percent test/control
Experiment: Anticancer human tumor HSSY-II cell line growth inhibition [Asc];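 note: spheroids exposed to drug for 7 days before reading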
Conditions: for pIC50: curve of first compound; for viability, T/C: stronger effect = lower value
Summary of the method: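 Stromal components (HUVEC and hMSC) are co-assembled with the cancer cells into multicellular spheroids. Drugs are then added singly or paired, at concentrations falling by half-log increments from a clinically achievable maximum, capped at 10 microM without known Cmax.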

**Q.** How did the pIC50 (second compound 0.1 µM) turn out when `C#Cc1c(F)ccc2cc(O)cc(-c3ncc4c(N5CC6CCC(C5)N6)nc(OCC56CCCN5CC(F)C6)nc4c3F)c12` (stereo not given) + Cc1c(S(C)(=O)=O)c(-c2cc(F)cc(N3CCN(c4ccc(NS(=O)(=O)c5ccc(NC(CCN6CCC(C(=O)OCCCP(=O)(O)O)CC6)CSc6ccccc6)c(S(=O)(=O)C(F)(F)F)c5)cc4)CC3)c2)c(-c2ccc(Cl)cc2)n1C(C)C was run?
**A.** Its pIC50 is 5.06.

**Q.** What about the pIC50 (second compound 0.316 µM) of the same molecule?
**A.** Its pIC50 is 5.22.

**Q.** And the pIC50 (second compound 1 µM)?
**A.** Its pIC50 is 5.23.

**Q.** What about the pIC50 (second compound 3.16 µM) of the same molecule?
**A.** Its pIC50 is 5.27.

**Q.** What about the pIC50 (second compound 10 µM) of the same molecule?
**A.** The pIC50 was 5.23.

**Q.** And the viability, T/C (second compound 0.1 µM, first compound 0.0316 µM)?
**A.** Its viability, T/C is 103%.

**Q.** What about the viability, T/C (second compound 0.1 µM, first compound 0.1 µM) of the same molecule?
**A.** Its viability, T/C is 99.5%.

**Q.** What about the viability, T/C (second compound 0.1 µM, first compound 0.316 µM) of the same molecule?
**A.** Its viability, T/C is 99.6%.

**Q.** And the viability, T/C (second compound 0.1 µM, first compound 1 µM)?
**A.** The viability, T/C was 102%.

**Q.** What about the viability, T/C (second compound 0.1 µM, first compound 3.16 µM) of the same molecule?
**A.** The viability, T/C was 87.8%.

**Q.** What about the viability, T/C (second compound 0.1 µM, first compound 10 µM) of the same molecule?
**A.** Its viability, T/C is 44%.

**Q.** What about the viability, T/C (second compound 0.316 µM, first compound 0.0316 µM) of the same molecule?
**A.** Its viability, T/C is 108%.

**Q.** And the viability, T/C (second compound 0.316 µM, first compound 0.1 µM)?
**A.** Its viability, T/C is 117%.

**Q.** And the viability, T/C (second compound 0.316 µM, first compound 0.316 µM)?
**A.** The viability, T/C was 110%.

**Q.** What about the viability, T/C (second compound 0.316 µM, first compound 1 µM) of the same molecule?
**A.** The viability, T/C was 105%.

**Q.** And the viability, T/C (second compound 0.316 µM, first compound 3.16 µM)?
**A.** Its viability, T/C is 82%.

**Q.** What about the viability, T/C (second compound 0.316 µM, first compound 10 µM) of the same molecule?
**A.** The viability, T/C was 25%.

**Q.** And the viability, T/C (second compound 1 µM, first compound 0.0316 µM)?
**A.** The viability, T/C was 102%.

**Q.** What about the viability, T/C (second compound 1 µM, first compound 0.1 µM) of the same molecule?
**A.** The viability, T/C was 105%.

**Q.** And the viability, T/C (second compound 1 µM, first compound 0.316 µM)?
**A.** Its viability, T/C is 109%.

**Q.** What about the viability, T/C (second compound 1 µM, first compound 1 µM) of the same molecule?
**A.** The viability, T/C was 105%.

**Q.** What about the viability, T/C (second compound 1 µM, first compound 3.16 µM) of the same molecule?
**A.** The viability, T/C was 96.8%.

**Q.** And the viability, T/C (second compound 1 µM, first compound 10 µM)?
**A.** Its viability, T/C is 9.87%.

**Q.** What about the viability, T/C (second compound 3.16 µM, first compound 0.0316 µM) of the same molecule?
**A.** The viability, T/C was 108%.

**Q.** What about the viability, T/C (second compound 3.16 µM, first compound 0.1 µM) of the same molecule?
**A.** The viability, T/C was 115%.

**Q.** What about the viability, T/C (second compound 3.16 µM, first compound 0.316 µM) of the same molecule?
**A.** The viability, T/C was 94.3%.

**Q.** And the viability, T/C (second compound 3.16 µM, first compound 1 µM)?
**A.** Its viability, T/C is 101%.

**Q.** What about the viability, T/C (second compound 3.16 µM, first compound 3.16 µM) of the same molecule?
**A.** The viability, T/C was 83.7%.

**Q.** And the viability, T/C (second compound 3.16 µM, first compound 10 µM)?
**A.** Its viability, T/C is 13.2%.

**Q.** And the viability, T/C (second compound 10 µM, first compound 0.0316 µM)?
**A.** Its viability, T/C is 105%.

**Q.** What about the viability, T/C (second compound 10 µM, first compound 0.1 µM) of the same molecule?
**A.** Its viability, T/C is 95.2%.

**Q.** And the viability, T/C (second compound 10 µM, first compound 0.316 µM)?
**A.** The viability, T/C was 92.6%.

**Q.** What about the viability, T/C (second compound 10 µM, first compound 1 µM) of the same molecule?
**A.** The viability, T/C was 97.8%.

**Q.** And the viability, T/C (second compound 10 µM, first compound 3.16 µM)?
**A.** The viability, T/C was 74.9%.

**Q.** What about the viability, T/C (second compound 10 µM, first compound 10 µM) of the same molecule?
**A.** Its viability, T/C is 29.4%.

**Q.** With `Cc1nc(N2CCC3(CC2)COC(C)C3N)c(CO)nc1Sc1ccnc(N)c1Cl` (stereo not given) + Cc1c(S(C)(=O)=O)c(-c2cc(F)cc(N3CCN(c4ccc(NS(=O)(=O)c5ccc(NC(CCN6CCC(C(=O)OCCCP(=O)(O)O)CC6)CSc6ccccc6)c(S(=O)(=O)C(F)(F)F)c5)cc4)CC3)c2)c(-c2ccc(Cl)cc2)n1C(C)C as the molecule, how does the pIC50 (second compound 0.1 µM) read?
**A.** Its pIC50 is less than 5.52.

**Q.** What about the pIC50 (second compound 0.316 µM) of the same molecule?
**A.** Its pIC50 is less than 5.52.

**Q.** What about the pIC50 (second compound 1 µM) of the same molecule?
**A.** Its pIC50 is less than 5.52.

**Q.** What about the pIC50 (second compound 3.16 µM) of the same molecule?
**A.** Its pIC50 is less than 5.52.

**Q.** What about the pIC50 (second compound 10 µM) of the same molecule?
**A.** Its pIC50 is less than 5.52.

**Q.** What about the viability, T/C (second compound 0.1 µM, first compound 0.00949 µM) of the same molecule?
**A.** Its viability, T/C is 79.8%.

**Q.** And the viability, T/C (second compound 0.1 µM, first compound 0.03 µM)?
**A.** The viability, T/C was 83.8%.

**Q.** And the viability, T/C (second compound 0.1 µM, first compound 0.0949 µM)?
**A.** Its viability, T/C is 88.9%.

**Q.** And the viability, T/C (second compound 0.1 µM, first compound 0.3 µM)?
**A.** Its viability, T/C is 78.8%.

**Q.** What about the viability, T/C (second compound 0.1 µM, first compound 0.949 µM) of the same molecule?
**A.** Its viability, T/C is 84.9%.

**Q.** And the viability, T/C (second compound 0.1 µM, first compound 3 µM)?
**A.** Its viability, T/C is 60.2%.

**Q.** And the viability, T/C (second compound 0.316 µM, first compound 0.00949 µM)?
**A.** Its viability, T/C is 59.4%.

**Q.** What about the viability, T/C (second compound 0.316 µM, first compound 0.03 µM) of the same molecule?
**A.** The viability, T/C was 71.4%.

**Q.** What about the viability, T/C (second compound 0.316 µM, first compound 0.0949 µM) of the same molecule?
**A.** Its viability, T/C is 60.7%.

**Q.** What about the viability, T/C (second compound 0.316 µM, first compound 0.3 µM) of the same molecule?
**A.** Its viability, T/C is 79.1%.

**Q.** What about the viability, T/C (second compound 0.316 µM, first compound 0.949 µM) of the same molecule?
**A.** The viability, T/C was 65.3%.

**Q.** What about the viability, T/C (second compound 0.316 µM, first compound 3 µM) of the same molecule?
**A.** Its viability, T/C is 61.7%.

**Q.** And the viability, T/C (second compound 1 µM, first compound 0.00949 µM)?
**A.** Its viability, T/C is 68.1%.

**Q.** And the viability, T/C (second compound 1 µM, first compound 0.03 µM)?
**A.** Its viability, T/C is 66.1%.

**Q.** And the viability, T/C (second compound 1 µM, first compound 0.0949 µM)?
**A.** Its viability, T/C is 78.5%.

**Q.** And the viability, T/C (second compound 1 µM, first compound 0.3 µM)?
**A.** The viability, T/C was 51.7%.

**Q.** And the viability, T/C (second compound 1 µM, first compound 0.949 µM)?
**A.** The viability, T/C was 67.5%.

**Q.** What about the viability, T/C (second compound 1 µM, first compound 3 µM) of the same molecule?
**A.** The viability, T/C was 59.2%.

**Q.** What about the viability, T/C (second compound 3.16 µM, first compound 0.00949 µM) of the same molecule?
**A.** The viability, T/C was 64.1%.

**Q.** And the viability, T/C (second compound 3.16 µM, first compound 0.03 µM)?
**A.** The viability, T/C was 53.9%.

**Q.** What about the viability, T/C (second compound 3.16 µM, first compound 0.0949 µM) of the same molecule?
**A.** Its viability, T/C is 65%.

**Q.** What about the viability, T/C (second compound 3.16 µM, first compound 0.3 µM) of the same molecule?
**A.** Its viability, T/C is 58.1%.

**Q.** And the viability, T/C (second compound 3.16 µM, first compound 0.949 µM)?
**A.** The viability, T/C was 63.3%.

**Q.** What about the viability, T/C (second compound 3.16 µM, first compound 3 µM) of the same molecule?
**A.** Its viability, T/C is 62.2%.

**Q.** And the viability, T/C (second compound 10 µM, first compound 0.00949 µM)?
**A.** Its viability, T/C is 50.7%.

**Q.** And the viability, T/C (second compound 10 µM, first compound 0.03 µM)?
**A.** Its viability, T/C is 64.1%.

**Q.** And the viability, T/C (second compound 10 µM, first compound 0.0949 µM)?
**A.** Its viability, T/C is 62.7%.

**Q.** And the viability, T/C (second compound 10 µM, first compound 0.3 µM)?
**A.** The viability, T/C was 48.3%.

**Q.** And the viability, T/C (second compound 10 µM, first compound 0.949 µM)?
**A.** Its viability, T/C is 51.3%.

**Q.** What about the viability, T/C (second compound 10 µM, first compound 3 µM) of the same molecule?
**A.** Its viability, T/C is 54.6%.
